Test results reported in patent publication US6878707B2, “Carboxamides useful as inhibitors of microsomal triglyceride transfer protein and of apolipoprotein b secretion” (Novartis AG, priority 2001, dated 2005).

Assays:
[1] = biological target: microsomal triglyceride transfer protein (MTP) (Homo sapiens, UniProt P55157); experiment: MTP assay; type: biochemical
Source text: (§1) The corresponding relevant subject matter of said PCT application is herewith incorporated by reference into the present specification.

[2] = in vivo lowering of plasma triglycerides and cholesterol; details: dose of 5 mg/kg p.o.
Source text: as §1

[3] = tested on: apolipoprotein B (apo B) secretion; experiment: apo B assay; type: cell-based
Source text: as §1

microsomal triglyceride transfer protein (MTP), sequence (P55157 19-894, species assumed): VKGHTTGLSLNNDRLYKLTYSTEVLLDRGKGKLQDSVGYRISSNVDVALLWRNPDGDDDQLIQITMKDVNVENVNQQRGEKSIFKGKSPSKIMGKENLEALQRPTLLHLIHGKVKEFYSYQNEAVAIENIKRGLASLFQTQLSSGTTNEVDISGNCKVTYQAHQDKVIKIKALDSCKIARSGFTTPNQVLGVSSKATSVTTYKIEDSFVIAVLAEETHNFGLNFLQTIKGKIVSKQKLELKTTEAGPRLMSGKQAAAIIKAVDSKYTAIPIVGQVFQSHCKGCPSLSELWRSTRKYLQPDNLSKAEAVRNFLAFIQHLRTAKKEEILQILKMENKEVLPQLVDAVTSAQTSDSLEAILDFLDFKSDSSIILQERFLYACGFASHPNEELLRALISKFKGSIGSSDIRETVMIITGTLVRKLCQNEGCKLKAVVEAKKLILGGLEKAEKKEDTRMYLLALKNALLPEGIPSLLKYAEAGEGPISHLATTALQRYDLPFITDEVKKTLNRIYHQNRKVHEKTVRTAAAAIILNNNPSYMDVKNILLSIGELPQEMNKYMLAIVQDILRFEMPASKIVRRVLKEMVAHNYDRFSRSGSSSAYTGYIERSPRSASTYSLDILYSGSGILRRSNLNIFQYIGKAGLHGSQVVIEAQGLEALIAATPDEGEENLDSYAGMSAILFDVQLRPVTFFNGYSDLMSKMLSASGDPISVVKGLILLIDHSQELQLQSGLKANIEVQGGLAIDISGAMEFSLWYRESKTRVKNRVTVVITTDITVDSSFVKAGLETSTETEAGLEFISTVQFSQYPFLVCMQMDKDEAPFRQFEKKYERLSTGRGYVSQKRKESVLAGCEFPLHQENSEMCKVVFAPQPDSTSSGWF
microsomal triglyceride transfer protein (MTP), sequence (P07237 18-508 partner, species assumed): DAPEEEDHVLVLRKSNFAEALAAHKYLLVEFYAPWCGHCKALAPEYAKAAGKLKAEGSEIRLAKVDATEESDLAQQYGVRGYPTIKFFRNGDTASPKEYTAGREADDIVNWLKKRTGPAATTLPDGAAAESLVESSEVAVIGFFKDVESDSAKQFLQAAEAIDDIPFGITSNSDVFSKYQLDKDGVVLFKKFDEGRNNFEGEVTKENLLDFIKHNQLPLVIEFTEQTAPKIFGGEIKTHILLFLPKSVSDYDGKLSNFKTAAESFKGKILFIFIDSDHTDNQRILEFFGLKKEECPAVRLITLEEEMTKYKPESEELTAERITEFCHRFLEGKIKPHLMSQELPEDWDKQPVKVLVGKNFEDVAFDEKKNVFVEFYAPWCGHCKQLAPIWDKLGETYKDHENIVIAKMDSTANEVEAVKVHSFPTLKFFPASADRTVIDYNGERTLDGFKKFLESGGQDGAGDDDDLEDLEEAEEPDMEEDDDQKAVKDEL

SMILES	melting point	further results
COC(=O)C1CCN(C2Cc3ccc(NC(=O)c4cccc(C)c4-c4ccc(C(F)(F)F)cc4)cc3C2)CC1 (stereo not drawn) [Example 9]	191 to 195 °C	–
COC(=O)N1CCN(C2Cc3ccc(NC(=O)c4ccccc4-c4ccc(C)cc4)cc3C2)CC1 (stereo not drawn) [Example 41]	136 to 138 °C	–
COC(=O)N1CCN(C2Cc3ccc(NC(=O)c4cccc(C(F)(F)F)c4-c4ccc(C(F)(F)F)cc4)cc3C2)CC1 (stereo not drawn) [Example 5]	210 to 212 °C	–
Cc1ccc(S(=O)(=O)N2CCN(C3Cc4ccc(NC(=O)c5cccc(C)c5-c5ccc(C(F)(F)F)cc5)cc4C3)CC2)cc1 (stereo not drawn) [Example 23]	153 to 154 °C	–
COC(=O)N1CCN(C2Cc3ccc(NC(=O)c4cccc(OC)c4-c4ccc(C(F)(F)F)cc4)cc3C2)CC1 (stereo not drawn) [Example 38]	176 to 178 °C	–
COC1CCN(C2Cc3ccc(NC(=O)c4cccc(C)c4-c4ccc(C(F)(F)F)cc4)cc3C2)CC1 (stereo not drawn) [Example 10]	197 to 199 °C	–
COC(=O)N1CCN(C2Cc3ccc(NC(=O)c4cccc(C)c4-c4ccc(F)cc4)cc3C2)CC1 (stereo not drawn) [Example 37]	141 to 142 °C	–
COC(=O)N1CCN(C2Cc3ccc(NC(=O)c4ccccc4-c4ccccc4)cc3C2)CC1 (stereo not drawn) [Example 39]	164 to 168 °C	–
Cc1cccc(C(=O)Nc2ccc3c(c2)CC(N2CCC4(CC2)OCCO4)C3)c1-c1ccc(C(F)(F)F)cc1 (stereo not drawn) [Example 11]	202 to 203 °C	–
COC(=O)N1CCN(C2Cc3ccc(NC(=O)c4ccccc4-c4ccc(C(F)(F)F)cc4)cc3C2)CC1 (stereo not drawn) [Example 6]	204 to 206 °C	–
CC(=O)N1CCN(C2Cc3ccc(NC(=O)c4cccc(C(F)(F)F)c4-c4ccc(C(F)(F)F)cc4)cc3C2)CC1 (stereo not drawn) [Example 22]	184 to 186 °C	–
COCC(=O)N1CCN(C2Cc3ccc(NC(=O)c4cccc(C)c4-c4ccc(C(F)(F)F)cc4)cc3C2)CC1 (stereo not drawn) [Example 26]	161 to 162 °C	–
COC(=O)N1CCN(C2Cc3ccc(NC(=O)c4cccc(OC)c4-c4ccc(F)cc4)cc3C2)CC1 (stereo not drawn) [Example 13]	132 to 134 °C	–
Cc1cccc(C(=O)Nc2ccc3c(c2)CC(N2CCN(C(=O)N(C)C)CC2)C3)c1-c1ccc(C(F)(F)F)cc1 (stereo not drawn) [Example 27]	217 to 218 °C	–
O=C(Nc1ccc2c(c1)CC(N1CCOCC1)C2)c1ccccc1-c1ccc(C(F)(F)F)cc1 (stereo not drawn) [Example 8]	191 to 194 °C	–
CCCC(=O)N1CCN(C2Cc3ccc(NC(=O)c4cccc(C)c4-c4ccc(C(F)(F)F)cc4)cc3C2)CC1 (stereo not drawn) [Example 21]	173 to 176 °C	–
Cc1cccc(C(=O)Nc2ccc3c(c2)CC(N2CCC(C)CC2)C3)c1-c1ccc(C(F)(F)F)cc1 (stereo not drawn) [Example 12]	219 to 221 °C	–

The next lines start with results.

melting point	SMILES	further results
163 to 164 °C	COC(=O)N1CCN([C@@H]2Cc3ccc(NC(=O)c4cccc(C)c4-c4ccc(C(F)(F)F)cc4)cc3C2)CC1 [Example 14, (R)-6-Methyl-4′-trifluoromethyl-1,1′-biphenyl-N-[2-[4-(methoxycarbonyl)-piperazino]indan-5-yl]-2-carboxamide]	IC50 [1]: ~40 nM; plasma cholesterol [2]: lowers; plasma triglycerides [2]: lowers; IC50 [3]: ~2 nM
205 to 208 °C	Cc1cccc(C(=O)Nc2ccc3c(c2)CC(N2CCN(S(C)(=O)=O)CC2)C3)c1-c1ccc(C(F)(F)F)cc1 (stereo not drawn) [Example 24]	–
209 to 210 °C	Cc1cccc(C(=O)Nc2ccc3c(c2)CC(N2CCN(C)CC2)C3)c1-c1ccc(C(F)(F)F)cc1 (stereo not drawn) [Example 3]	–
160 to 161 °C	Cc1cccc(C(=O)Nc2ccc3c(c2)CC(N2CCN(C(=O)COCc4ccccc4)CC2)C3)c1-c1ccc(C(F)(F)F)cc1 (stereo not drawn) [Example 29]	–
236 to 238 °C	Cc1cccc(C(=O)Nc2ccc3c(c2)CC(N2CCN(c4ccccc4)CC2)C3)c1-c1ccc(C(F)(F)F)cc1 (stereo not drawn) [Example 2]	–
161 to 163 °C	COC(=O)N1CCN(C2Cc3ccc(NC(=O)c4cccc(C)c4-c4ccc(C(F)(F)F)cc4)cc3C2)CC1 (racemic) [Example 1, 6-Methyl-4′-trifluoromethyl-1,1′-biphenyl-N-[2[4-(methoxycarbonyl)-piperazino]-indan-5-yl]-2-carboxamide]	–
190 to 194 °C	Cc1cccc(C(=O)Nc2ccc3c(c2)CC(N2CCN(Cc4ccccn4)CC2)C3)c1-c1ccc(C(F)(F)F)cc1 (stereo not drawn) [Example 31, 6-methyl-4′-trifluoromethyl-1,1′-biphenyl-N-[2-[4-(2-pyridinylmethyl)piperazino]indan-5-yl]-2-carboxamide]	–
120 to 123 °C	Cc1cccc(C(=O)Nc2ccc3c(c2)CC(N2CCN(C(=O)c4ccccc4)CC2)C3)c1-c1ccc(C(F)(F)F)cc1 (stereo not drawn) [Example 28]	–
201 to 204 °C	Cc1cccc(C(=O)Nc2ccc3c(c2)CC(N2CCOCC2)C3)c1-c1ccc(C(F)(F)F)cc1 (stereo not drawn) [Example 7]	–
158 to 160 °C	Cc1cccc(C(=O)Nc2ccc3c(c2)CC(N2CCN(C(=O)c4ccncc4)CC2)C3)c1-c1ccc(C(F)(F)F)cc1 (stereo not drawn) [Example 25]	–
188 to 191 °C	Cc1cccc(C(=O)Nc2ccc3c(c2)CC(N2CCN(Cc4ccccc4)CC2)C3)c1-c1ccc(C(F)(F)F)cc1 (stereo not drawn) [Example 4]	–
86 to 88 °C	Cc1cccc(C(=O)Nc2ccc3c(c2)CC(N2CCN(C(=O)CO)CC2)C3)c1-c1ccc(C(F)(F)F)cc1 (stereo not drawn) [Example 30]	–
